Key:
[1] = Solubility of batimastat in ethanol (100%); assay type: physicochemical
From the text: This was by preparation of a series of solutions outlined in Table 1

[2] = test system: coronary arteries of farm swine; assay: Re-endothelialisation of batimastat-loaded BiodivYsio stents (SEM); assay type: in vivo; conditions: 5 days
From the text: BiodivYsio stents (control, low dose batimastat and high dose batimastat) were implanted into healthy farm swine. After 5 days the animals were sacrificed and the stents studied for endothelialisation using scanning electron microscopy.
The stents were implanted into the coronary arteries of farm swine (2 per animal, each in different arteries). After sacrifice, the vessels were excised and trimmed of all extraneous tissue, washed in buffer, and fixed in 2.5% glutaraldehyde at pH 7.4. Fixation was carried out for a minimum of 24-48 hours in 2.5% glutaraldehyde. The section of artery was rinsed in 0.1M cacodylate buffer pH 7.4. The arteries were shipped in 0.1M cacodylate buffer pH 7. The vessels were required to be left whole, i.e. without longitudinal transection. A small V was marked in the proximal end of the vessel to determine vessel orientation. SEM analysis was carried out on three sections of the stented artery and at 2 different magnifications (high and low). The analysis concentrated on the rate and extent of re-endothelisation of the stent struts and the presence of any cellular/biological debris within the stented segment of artery.

[3] = test system: farm swine; assay: One-month pre-clinical assessment (QCA, histomorphometry, histology); assay type: in vivo; conditions: low dose 0.30 μg per mm^2 of stent, 1 month, control 4.0
From the text: A total of 24 stents were implanted in 12 farm swine pigs for 1 month. […] The higher dose was set at the maximum quantity that could be loaded onto the stent.

[4] = test system: Yucatan minipigs; assay: 3-month pre-clinical evaluation (QCA stenosis); assay type: in vivo; conditions: 3 months, not statistically significant (p=0.15)
From the text: After 3 months a trend in favour of the treatment groups was found, with an indication of a dose-response relationship shown in FIG. 5. The stenosis was reduced by 20% and 34% in the low and high dose groups respectively compared to the control.

[5] = Pharmacokinetic study, 14C batimastat-loaded BiodivYsio stents in iliac arteries; assay type: in vivo, New Zealand white rabbit; conditions: rabbit iliac arteries, 28 days post-implantation
From the text: The pharmacokinetic studies were initiated to investigate the deposition of drug from the batimastat-loaded BiodivYsio stent.

[6] = Batimastat elution from stents in PBS, non flow system; assay type: physicochemical; conditions: coated stents loaded from methanol, after 1 hour, based on total amount loaded
Protocol: Elution studies were carried out at 25° C. for up to 1 hour in gently agitated PBS. […] At various time intervals a I ml aliquot was removed and replaced with 1 ml fresh PBS. The stents and water aliquots were measured, see section 1.1.4, to give the amount of drug eluted and the amount of drug remaining on the stents, see section 1.2.1 for results. Samples of eluent from elution studies were injected directly into the system. The sensitivity of the method was 0.010 ppm (0.010 μg/ml).

[7] = P is the partition coefficient; cited from earlier work

Compound	Solubility ([1]; 1.05 mg per ml batimastat in ethanol (100%))	Solubility ([1]; 1.13 mg per ml batimastat in ethanol (100%))	Solubility ([1]; 2.6 mg per ml batimastat in ethanol (100%))	Effect on endothelialisation process in-vivo ([2]; high dose 115.3±16.1 μg per 15 mm stent)	Effect on endothelialisation process in-vivo ([2]; low dose 34.2±1.6 μg per 15 mm stent)	Intimal area [3]	Reduction of stenosis compared to the control (QCA) ([4]; high dose 0.30±0.13 μg per mm^2 of stent) [%]	Reduction of stenosis compared to the control (QCA) ([4]; low dose 0.03±0.01 μg per mm^2 of stent) [%]	Loaded drug eluted from stent [5] [%]	Batimastat remaining on the stents [6] [%]	log P [7]
CNC(=O)[C@H](Cc1ccccc1)NC(=O)[C@H](CC(C)C)[C@H](CSc1cccs1)C(=O)NO (relative stereo) [batimastat, (2R-(1(S*),2R*,3S*))—N4-hydroxy-N1-(2-(methylamino)-2-oxo-1-(phenylmethypethyl)-2-(2-methylpropyl)-3-((thienylthio)methyl)butanediamide]	clear suspension	fine suspension	white suspension	did not affect the endothelialisation process	did not affect the endothelialisation process	2.5	34	20	~95	44	–
C[C@@H]1C[C@H]2[C@@H]3CCC4=CC(=O)C=C[C@]4(C)[C@@]3(F)[C@@H](O)C[C@]2(C)[C@@]1(O)C(=O)CO [dexamethasone]	–	–	–	–	–	–	–	–	–	–	2.55
